Legend:
spotted gar BRS3 (sBRS3) = assay: Radioligand binding (competition); set-up: species or system Lepisosteus oculatus; conditions: transfected HEK293 cells, 1 h 21°C, pH 7.4, mean ± SE, at least three experiments
Protocol: (§1) HEK293 cells were seeded in a 10-cm tissue culture dish at a density of 10^6 cells per dish and grown overnight at 37°C in growth medium. The following morning, 5 μg of different species’ BRS3 plasmids were transfected. After 6 h, the medium was replaced with growth medium. Cells were maintained at 37°C in a 5% CO2 atmosphere and used 48 h later for binding assays. The positive control group included transfected GRPR and NMBR; the test group consisted of transfected BRS3 from different species. Then, [^125I]-Tyr^42-GRP and [^125I]-Tyr-NMB were used as the ligands to assess affinity to the various receptors. […] The cell concentration was adjusted to between 0.05 and 4 × 10^6 cells/ml for each receptor such that less than 20% of the total added radioactive ligand was bound during the incubation, and the results were compared to cells transfected with GRPR or NMBR adjusted in concentration to bind a similar amount of ligand. After the incubation, 100 μl aliquots were added to 1.5-ml microfuge tubes, which contained 100 μl of binding buffer to determine the total radioactivity. The bound tracer was separated from unbound tracer by pelleting the cells through the binding buffer by centrifugation at 10,000g in a Microfuge E (Beckman) for 3 min. The supernatant was aspirated, and the pelleted cells were rinsed twice with a washing buffer that contained 1% (w/v) BSA in PBS. The amount of radioactivity bound to the cells was measured in a Cobra II Gamma counter (Packard Instruments). Binding was expressed as the percentage of total radioactivity that was associated with the cell pellet. All binding values represented saturable binding; nonsaturable binding was <15% of the total binding in all experiments. Each point was measured in duplicate, and each experiment was replicated at least four times. […] All the experiment data were calculated using 1 pM ligand-treated as 100% control.

turtle BRS3 (tBRS3) [1] = assay: ERK1/2 phosphorylation (WT and mutants); assay type: cell-based, Chrysemys picta
Protocol: (§2) For ERK1/2 phosphorylation, HEK293 cells were seeded in 24-well plates and transfected with GRPR, NMBR, BRS3, mutants of different species’ BRS3, or an empty vector plasmid, pcDNA3.1-V5-His plasmid (300 ng). […] Each sample with an equal amount of protein was mixed with 6×SDS sample buffer, boiled for 5 min, and separated on 10% SDS-polyacrylamide gel electrophoresis (PAGE) before transferring the proteins onto a PVDF membrane. The membranes were then blocked at room temperature for 1 h with 5% milk powder in Tris-buffered saline-Tween (TBST), followed by subsequent incubation at 4°C overnight in TBST containing the different primary antibodies (1:1,000 dilution). After washing three times (10 min each time) with TBST, the membranes were incubated for 1 h in TBST containing the secondary antibodies (1:2,000 dilution), followed by washing three times (10 min each time) with TBST, prior to detection by chemiluminescence.

[2] = tested on: BRS3 receptors in nonplacental vertebrates; assay: ERK1/2 phosphorylation, nonplacental pooled; assay type: cell-based, koala, platypus, chicken, turtle, frog, and spotted gar; conditions: 1,000 nM peptide, 0/2/5 min, HEK293
Protocol: as §2

aardvark BRS3 (aBRS3) = assay: Intracellular calcium assay (WT and mutants); assay type: cell-based, Orycteropus afer; conditions: for Calcium fold: 10 nM peptide, HEK293, Fluo8, aBRS3; for Intracellular Ca2+, mutants (in words): aBRS3 R127Q, S205P, and H294R, all three
Protocol: (§3) Intracellular calcium was measured using the non-wash calcium assay Fluo8 kit (ab112129, Abcam) according to the manufacturer’s instructions. Briefly, HEK293 cells were seeded in 24-well plates and were transfected with GRPR, NMBR, BRS3, or the empty vector plasmid pcDNA3.1-V5-His (300 ng) and incubated overnight at 37°C with 5% CO2. The next day, the cells were replated into a 96-well assay plate (black plate and clear bottom). After 12 h, growth media were aspirated, and calcium dye was added. […] The basal fluorescence intensity was recorded 15 times at 1 Hz for […]. The results were normalized to the average basal fluorescence intensity in ratio, and the peak response was used for the result calculation. Calcium fold was calculated using no stimulation data as standard value.

human BRS3 (hBRS3) [3] = assay: ERK1/2 phosphorylation (WT and mutants); assay type: cell-based
Protocol: as §2

chicken BRS3 (cBRS3) = assay: Radioligand binding (competition); set-up: species or system Gallus gallus; conditions: transfected HEK293 cells, 1 h 21°C, pH 7.4, mean ± SE, at least three experiments
Protocol: as §1, with “species.” for “species. Then, [^125I]-Tyr^42-GRP and [^125I]-Tyr-NMB were used as the ligands to assess affinity to the various receptors.”, “All binding values represented saturable binding; nonsaturable binding was <15% of the total binding in all experiments.” left out

human BRS3 (hBRS3) [4] = assay: Intracellular calcium assay (WT and mutants); assay type: cell-based; conditions: 10 nM peptide; for Calcium fold: HEK293, Fluo8, hBRS3; for Intracellular Ca2+, mutants vs wild type (in words): hBRS3 R127Q, S205P, and H294R, each
Protocol: as §3

mouse BRS3 (mBRS3) = assay: Intracellular calcium assay (WT and mutants); assay type: cell-based; conditions: for Calcium fold: 10 nM peptide, HEK293, Fluo8, mBRS3; for Intracellular Ca2+, mutants (in words): mBRS3 R127Q, S205P, and H294R, all three
Protocol: as §3

turtle BRS3 (tBRS3) [5] = assay: Intracellular calcium assay (WT and mutants); assay type: cell-based, Chrysemys picta; conditions: 10 nM peptide; for Calcium fold: HEK293, Fluo8, tBRS3; for Intracellular Ca2+, mutants vs wild type (in words): tBRS3 Q127R, P205S, and R294H, each
Protocol: as §3

Substance | IC50 (spotted gar BRS3 (sBRS3); 50 pM [125I]-Tyr42-GRP) | IC50 (spotted gar BRS3 (sBRS3); 50 pM [125I]-Tyr-NMB) | ERK phosphorylation, mutant (in words) (turtle BRS3 (tBRS3) [1]; tBRS3 P205S) | ERK phosphorylation, mutant (in words) (turtle BRS3 (tBRS3) [1]; tBRS3 Q127R) | ERK phosphorylation, mutant (in words) (turtle BRS3 (tBRS3) [1]; tBRS3 R294H) | ERK phosphorylation (in words) [2] | Intracellular Ca2+, mutants (in words) (aardvark BRS3 (aBRS3)) | ERK phosphorylation, mutant (in words) (human BRS3 (hBRS3) [3]; hBRS3 H294R) | ERK phosphorylation, mutant (in words) (human BRS3 (hBRS3) [3]; hBRS3 R127Q) | ERK phosphorylation, mutant (in words) (human BRS3 (hBRS3) [3]; hBRS3 S205P) | IC50 (chicken BRS3 (cBRS3); 50 pM [125I]-Tyr42-GRP) | IC50 (chicken BRS3 (cBRS3); 50 pM [125I]-Tyr-NMB) | Intracellular Ca2+, mutants vs wild type (in words) (human BRS3 (hBRS3) [4]) | Intracellular Ca2+, mutants (in words) (mouse BRS3 (mBRS3)) | Intracellular Ca2+, mutants vs wild type (in words) (turtle BRS3 (tBRS3) [5]) | further results
GSHWAVGHLM-NH2 [GRP, gastrin-releasing peptide] | 0.17 nM | 0.54 nM | the effect is not obvious | almost could not be detected | almost could not be detected | increase in the levels of phosphorylated ERK | significant increase in cellular Ca^2+ ions levels | could be detected | could be detected | the effect is not obvious | 0.15 nM | 0.18 nM | remarkable increase of cellular Ca^2+ ions | significant increase in cellular Ca^2+ ions levels | remarkable decrease of cellular Ca^2+ ions | Calcium fold (aardvark BRS3 (aBRS3); replicate 1): 1.0918 fold; Calcium fold (aardvark BRS3 (aBRS3); replicate 2): 1.1902 fold; Calcium fold (aardvark BRS3 (aBRS3); replicate 3): 1.2372 fold; Calcium fold (human BRS3 (hBRS3) [4]; replicate 1): 1.1274 fold; Calcium fold (human BRS3 (hBRS3) [4]; replicate 2): 1.2515 fold; Calcium fold (human BRS3 (hBRS3) [4]; replicate 3): 1.1684 fold; Calcium fold (mouse BRS3 (mBRS3); replicate 1): 1.0113 fold; Calcium fold (mouse BRS3 (mBRS3); replicate 2): 1.0374 fold; Calcium fold (mouse BRS3 (mBRS3); replicate 3): 1.111 fold; Calcium fold (turtle BRS3 (tBRS3) [5]; replicate 1): 5.1678 fold; Calcium fold (turtle BRS3 (tBRS3) [5]; replicate 2): 5.2199 fold; Calcium fold (turtle BRS3 (tBRS3) [5]; replicate 3): 5.5876 fold
neuromedin B [NMB] | 1.74 nM | 2.65 nM | the effect is not obvious | almost could not be detected | almost could not be detected | increase in the levels of phosphorylated ERK | significant increase in cellular Ca^2+ ions levels | could be detected | could be detected | the effect is not obvious | 1.35 nM | 2.26 nM | remarkable increase of cellular Ca^2+ ions | significant increase in cellular Ca^2+ ions levels | remarkable decrease of cellular Ca^2+ ions | 

From article PMC6422423, “Constitutively active BRS3 is a genuinely orphan GPCR in placental mammals” (PLoS Biology, 2019)
